Experimental data taken from US20100158808A1, “Altered Activity of Toll-Like Receptors” (priority 2003, published 2010).

Tests used:
mice = assay: Experimental shock model (SIRS), D-galactosamine, i.p. injection; assay type: in vivo; conditions: for Survival in shock model: mice, i.p. with D-galactosamine
Procedure: Experimental shock model. Age- and sex-matched mice were injected with 5 mg of HS, 5 μg of LPS, 5 μg of Limulus anti-LPS factor, 5 mg of chondroitin sulfate, 200 U (−5 mg) heparin, 150 μg of CpG DNA, 1.5 U of elastase, or PBS mixed with 20 mg of D-galactosamine in a total volume of 500 μl of PBS by i.p. injection as previously described (Franks et al. (1991) Infect. Immun. 59:2609). Concentrations of HS and elastase were calculated by weight of lyophilized powder, and the doses used were near the LD50 based on dose-response experiments. In some experiments, the agonist was mixed with 5 or 20 μg of Limulus anti-LPS factor before injection. For some injections, enzymes were boiled at 100° C. for 60 minutes and vortexed vigorously, or preincubated with elastase inhibitor-1 for 4 hours at room temperature and then mixed with D-galactosamine before injection. Mice were monitored every hour for 48 hours and then euthanized.
During sepsis, Gram-negative bacteria shed LPS, which activates TLR4 on cells that then release inflammatory cytokines mediating systemic inflammation and death (Beutler (2000) Curr. Opin. Immunol. 12:20). To determine whether soluble HS can induce a model of systemic inflammatory response syndrome (SIRS) via activation of TLR4 in mice, HS was administered by i.p. injection to TLR4 wild type and mutant mice. This mouse model system has been used to study shock and a sepsis-like syndrome in response to microbial toxins (Galanos et al. (1979) Proc. Natl. Acad. Sci. USA 76:5939). […] Moreover, the observed responses were not due to contamination of HS by LPS, since the HS used was not contaminated with LPS.

TLR4 = biological target: T1, TLR4 (Mus musculus, UniProt Q9JHF9+Q9QUK6); assay: NFκB-luciferase reporter assay in HEK 293 cells stably expressing TLR4, MD2 and/or CD14; assay type: cell-based, murine; design: expressed in transfected cells; host or cells: HEK 293; conditions: HEK 293 cells lacking TLR4 and MD2 or CD14
T1 sequence (Q9QUK6 26-835): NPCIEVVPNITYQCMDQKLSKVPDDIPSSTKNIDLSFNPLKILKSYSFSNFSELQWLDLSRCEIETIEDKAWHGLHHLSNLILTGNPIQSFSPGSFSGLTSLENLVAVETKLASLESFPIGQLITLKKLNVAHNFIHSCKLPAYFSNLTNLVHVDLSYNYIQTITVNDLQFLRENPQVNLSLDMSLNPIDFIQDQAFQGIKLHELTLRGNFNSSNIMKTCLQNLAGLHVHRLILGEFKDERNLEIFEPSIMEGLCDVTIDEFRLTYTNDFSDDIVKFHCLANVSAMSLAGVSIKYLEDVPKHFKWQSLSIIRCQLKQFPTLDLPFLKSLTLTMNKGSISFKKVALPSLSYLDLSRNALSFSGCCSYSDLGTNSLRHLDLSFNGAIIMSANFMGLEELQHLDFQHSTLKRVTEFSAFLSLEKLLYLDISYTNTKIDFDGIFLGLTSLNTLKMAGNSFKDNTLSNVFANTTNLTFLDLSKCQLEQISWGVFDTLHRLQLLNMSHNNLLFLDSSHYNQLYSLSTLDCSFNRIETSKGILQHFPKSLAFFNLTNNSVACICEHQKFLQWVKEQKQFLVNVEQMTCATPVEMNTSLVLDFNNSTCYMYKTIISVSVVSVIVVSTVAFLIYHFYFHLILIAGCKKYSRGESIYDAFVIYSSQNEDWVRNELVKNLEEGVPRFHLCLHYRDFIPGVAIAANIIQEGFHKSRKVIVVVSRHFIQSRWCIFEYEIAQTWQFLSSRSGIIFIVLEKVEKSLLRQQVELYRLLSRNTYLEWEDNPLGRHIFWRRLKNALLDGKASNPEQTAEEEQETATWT
T1 sequence (Q9JHF9 19-160): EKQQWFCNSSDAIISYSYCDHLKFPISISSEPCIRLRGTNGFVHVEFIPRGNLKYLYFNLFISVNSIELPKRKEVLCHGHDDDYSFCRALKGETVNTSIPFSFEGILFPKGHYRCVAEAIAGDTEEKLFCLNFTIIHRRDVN
Procedure: Model ECM environment. Tissue culture plates were coated with ECM as follows. PAEC were seeded into 6-well (3×10^5 cells/well), 24-well (5×10^4 cells/well) or 100 mm (2×10^5 cells) fibronectin-coated tissue culture plates (BD Biosciences, San Jose, Calif.) in DMEM (Invitrogen) containing 10% fetal bovine serum supplemented with penicillin and streptomycin and 4% w/v of Dextran 40. The cell cultures were incubated at 37° C. in 5% CO2 humidified atmosphere for seven days and were supplemented with […] on day three and day five. After 7 days, endothelial cells were washed once with phosphate buffered saline (PBS) and lysed by exposure to 0.5% w/v Triton X-100 and 20 mM NH4OH in PBS (pH 7.4) at 37° C. for 20 minutes (Bonifacino, 1998). The wells were then washed 4 times with PBS (pH 7.4) and inspected microscopically to ensure removal of the cells. Plates were used immediately or were stored in PBS (pH 7.4) with […] at 4° C.
HEK 293 cells were stably transfected with the TLR4 and MD2 or CD14 expression plasmids using Superfect (Qiagen, Valencia, Calif.) following the manufacturer's instructions. HEK 293 cells expressing TLR4 and MD2 or CD14 were obtained by culturing the transfected cells with appropriate antibiotic selection medium, and were cloned by limiting dilution in the selection medium. HEK 293 cells expressing TLR4, MD2 and CD14 were generated by transfecting HEK 293 cells that expressed TLR4 and MD2 with the CD14 expression plasmid, and selecting clones using appropriate antibiotic containing medium. Cell lines expressing TLR4 and MD2 and/or CD14 were then maintained in DMEM supplemented with 10% fetal bovine serum and the appropriate selection antibiotics. Control cell lines were transfected with empty expression vectors and incubated in selection conditions as described above. Selected clones were tested for cell surface expression of the TLR4/MD2 complex and CD14 by flow cytometry using monoclonal antibodies specific for the TLR4/MD2 complex or CD14.
NFκB-luciferase reporter assays. Activation of NFκB was measured using a NFκB-luciferase reporter assay. HEK 293 cell lines stably expressing TLR4, MD2 and/or CD14, or control cells were seeded into 24 well tissue culture plates (2×10^5 cells/well) in 1.0 ml DMEM containing 10% fetal bovine serum and penicillin and streptomycin. The cells were allowed to adhere to the culture wells at 37° C. overnight and were then transfected with […] NFκB-firefly-luciferase using Superfect Transfection Reagent (Qiagen). Following transfection, the cells were washed once with phosphate buffered saline and cultured for 24 hours at 37° C. in 1.0 ml DMEM containing 0.5% fetal bovine serum. After various treatments, the culture medium was aspirated and the cells were washed once with PBS. The cells were lysed in […] Passive Lysis Buffer (Promega) with rocking at room temperature for 15 minutes. Renilla- and Firefly-luciferase were assayed simultaneously using the Dual-Luciferase Reporter Assay System (Promega) and a TD-20/20 luminometer (Turner Designs, Sunnyvale, Calif.). Activation of NFκB was reported as a ratio of the firefly luciferase activity to the constitutively expressed Renilla luciferase internal control, and is the mean of triplicate wells.
To determine whether and under what conditions HS stimulates TLR4, various combinations of TLR4, MD2 and CD14, components of the putative TLR4 receptor complex, were stably expressed in HEK 293 cells and the effect of HS on TLR4 signaling in the transfected cells was examined (FIG. 1). The HEK 293 cells expressing receptor components were transiently transfected with a NFκB-firefly luciferase reporter construct along with a Renilla-luciferase internal control reporter construct. […]

TLR4/MD2 complex = biological target: T2, TLR4/MD2 complex (Mus musculus, UniProt Q9JHF9+Q9QUK6); assay: Cell surface expression of TLR4/MD2 in HEK/TLR4(+) cells by flow cytometry; assay type: cell-based, murine
T2 construct: expressed in transfected cells; host or cells: HEK 293 clone HEK/TLR4(+)
T2 sequence (Q9QUK6 26-835): T1 sequence (Q9QUK6 26-835)
T2 sequence (Q9JHF9 19-160): T1 sequence (Q9JHF9 19-160)
Procedure: FIG. 2A is a graph plotting the level of reporter activity in HEK/TLR4(+) cells transfected with NFκB- and control-luciferase reporter plasmids and then stimulated with intact HS or LPS, or with HS or LPS that had been treated with nitrous acid (HNO2) at pH 4.0 or pH 1.5. Controls were treated with PBS vehicle. […] FIG. 2C is a graph showing the effect of PBS, HS, depolymerized HS (nitrous acid, pH 1.5), and recombinant human IL-1α on cell surface expression of TLR4/MD2 in HEK/TLR4(+) cells. Expression of TLR4 on the cell surface was determined by flow cytometry using a monoclonal antibody specific to the TLR4/MD2 complex. Values are the mean of triplicate wells and are representative of three separate experiments.
To determine whether the effect of HS occurred through specific action on TLR4, surface expression of the TLR4/MD2 complex on cells treated with HS was examined. […] Thus, HEK/TLR4(+) cells responded to HS by activating NFκB and mobilizing receptor complexes.

Boc-Ala-Ala-Ala-NHO-Bz [elastase inhibitor-1]
Reduction of the death rate after elastase injection (mice; elastase preincubated with elastase inhibitor-1 for 4 hours): 50%

chondroitin sulfate
Survival in shock model (mice): all but one mouse

heparin
Survival in shock model (mice): survived

recombinant human IL-1α: recombinant human IL-1α, activates NFκB via the IL-1 receptor
Activation of NFκB-luciferase reporter (TLR4): activated | Change in surface expression of TLR4/MD2 (TLR4/MD2 complex): did not change
